# Assay results as given in article PMC4033659 (Journal of Medicinal Chemistry, 2014).
# Assay: In vivo PK in rats after ip administration
# Details: rat, ip 10 mg/kg, at Tmax 30 min
SMILES,brain (maximum concentration),plasma (maximum concentration)
"Cc1c(OCCCCOc2ccc(F)c(C(=O)O)c2)ccc(C(=O)CC(C)(C)C)c1O [Compound 75, 5-(4-(4-(3,3-Dimethylbutanoyl)-3-hydroxy-2-methylphenoxy)butoxy)-2-fluorobenzoic Acid]",0.22 ± 0.04 µM,6.52 ± 0.54 µM
"COc1ccc(C(=O)O)cc1OCCCCOc1ccc(C(=O)CC(C)(C)C)c(O)c1C [Compound 72, 3-(4-(4-(3,3-Dimethylbutanoyl)-3-hydroxy-2-methylphenoxy)butoxy)-4-methoxybenzoic Acid]",–,2.44 ± 2.19 µM
"Cc1c(OCCCCOc2ccc(F)c(C(=O)O)c2)ccc(C(=O)C(C)C)c1O [Compound 65, 2-Fluoro-5-(4-(3-hydroxy-4-isobutyryl-2-methylphenoxy)butoxy)benzoic Acid]",–,5.44 ± 2.92 µM
"COc1cc(C(=O)O)ccc1OCCCCOc1ccc(C(=O)CC(C)C)c(O)c1C [Compound 44, 4-{4-[3-Hydroxy-2-methyl-4-(3-methylbutanoyl)phenoxy]butoxy}-3-methoxybenzoic Acid]",0.23 ± 0.10 µM,10.57 ± 2.52 µM
"CCCC(=O)c1ccc(OCCCCOc2cc(C(=O)O)ccc2OC)c(C)c1O [Compound 68, 3-(4-(4-Butyryl-3-hydroxy-2-methylphenoxy)butoxy)-4-methoxybenzoic Acid]",–,2.18 ± 0.58 µM
